Test results from US20230114728A1 (Venatorx Pharmaceuticals, Inc., priority 2019, published 2023).

Biological target: T1, A. baumannii PBP2 (Acinetobacter baumannii, UniProt D0C8Z9)
T1 construct: made in house
T1 sequence (D0C8Z9 1-672): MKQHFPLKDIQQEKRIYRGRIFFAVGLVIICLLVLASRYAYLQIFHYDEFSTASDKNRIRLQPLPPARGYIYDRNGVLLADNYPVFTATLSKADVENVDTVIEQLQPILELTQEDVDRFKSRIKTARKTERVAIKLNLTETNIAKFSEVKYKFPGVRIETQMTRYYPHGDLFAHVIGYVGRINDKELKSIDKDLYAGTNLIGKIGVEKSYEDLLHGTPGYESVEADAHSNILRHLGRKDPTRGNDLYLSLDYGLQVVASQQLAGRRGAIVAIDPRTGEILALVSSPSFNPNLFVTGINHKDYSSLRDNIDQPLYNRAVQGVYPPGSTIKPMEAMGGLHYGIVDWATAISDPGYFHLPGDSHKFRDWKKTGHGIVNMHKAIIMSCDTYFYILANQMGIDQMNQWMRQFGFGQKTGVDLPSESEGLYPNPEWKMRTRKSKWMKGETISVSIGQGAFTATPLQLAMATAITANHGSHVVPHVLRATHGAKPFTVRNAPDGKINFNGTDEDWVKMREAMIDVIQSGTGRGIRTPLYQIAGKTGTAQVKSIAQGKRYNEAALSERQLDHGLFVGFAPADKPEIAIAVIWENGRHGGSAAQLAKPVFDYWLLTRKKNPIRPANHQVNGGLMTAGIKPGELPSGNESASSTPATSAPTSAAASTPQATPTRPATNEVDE
Assay: Bocillin-FL fluorescence polarization competition binding assay, A. baumannii PBP2
Conditions: fluorescence polarization competition binding assay using Bocillin-FL; read-out: A. baumannii PBP2 Potency
Excerpt: Example I: Experimental Method for Penicillin-Binding Protein Binding Assays with Bocillin-FL Via Fluorescence Polarization
To determine the ability of boronic acid-based test PBP inhibitors to bind Penicillin Binding Proteins (PBPs), Bocillin-FL (fluorescently-labeled penicillin V; ThermoFisher Scientific) was used in a fluorescence polarization (FP) competition binding assay to assess inhibitor binding to PBP2, PBP3 or PBP4 from Escherichia coli (K12), PBP3 from Pseudomonas aeruginosa (PA01), PBP1a, PBP2 and PBP3 from Acinetobacter baumannii (ATCC 19606), and PBP2 from Neiserria gonorrheae (FA19). PBPs were cloned and purified as described previously (E. coli PBPs, King, D. T, et al., ACS Infectious Diseases 2015, 1, 175-184; P. aeruginosa PBP3, Han et. al., PNAS 2010, 107 (51), 22002-22007; A. baumannii PBPs, Penwell et. al., Antimicrob. Agents Chemother. 2015, 59 (3), 1680-1689; N. gonorrhoeae PBP2, Singh et. al., J Biol. Chem. 2019, 294 (38), 14020-14032). To establish assay conditions for competition binding, enzyme titration/saturation binding experiments were initially performed. Bocillin-FL was prepared at 0.2 μM in a buffer comprised of 50 mM Hepes (pH 8.0), 300 mM NaCl and 5% (v/v) glycerol for reactions with E. coli, P. aeruginosa and N. gonorrhoeae PBPs, and 25 mM Tris (pH 8.0), 200 mM NaCl and 10% (v/v) glycerol and 0.005% (v/v) Tween 20 for reactions with A. baumannii PBPs. Saturation binding was performed by mixing 40 μl of PBP solutions ranging in concentrations from 0-24 μM with 40 μl of the 0.2 μM Bocillin-FL solution, in individual wells of a black 384-well microplate. FP was measured immediately upon mixing (Excitation, 490 nm; Emission, 520 nm; g-factor, 0.96), using a Cytation3 (BioTek) microplate reader and measured continuously for up to 120 minutes. […] The competition binding assay (80 μl final volume) was validated using beta-lactams and PBPs at final concentrations of: 1.5 μM, E. coli PBP3; 0.75 μM, P. aeruginosa PBP3; 1 μM A. baumannii PBP1a; 2.5 μM A. baumannii PBP2; 0.2 μM A. baumannii PBP3; and […] N. gonorrhoeae PBP2. Bocillin-FL was at 0.1 μM (0.05 μM with A. baumannii PBP1a) and beta-lactam concentrations ranged from 0-1000 μM. […] Bocillin-FL was added and the FP immediately measured for up to 60 minutes (90 minutes for E. coli PBP2). […] The beta-lactam potency was reported as the concentration of beta-lactam required to reduce the amount of PBP bound-Bocillin-FL by 50% (EC50). […] Binding assays for boronic acid PBP inhibitors were performed in an identical fashion for the respective PBPs

## C[C@@H](O)[C@@H](NC(=O)N1CCN(CCNC(=O)c2c(F)cc(O)c(O)c2Cl)C(=O)C1=O)C(=O)N[C@H]1Cc2ccc(F)c(C(=O)O)c2OB1O [Example 102, (R)-3-((2R,3R)-2-(4-(2-(2-chloro-6-fluoro-3,4-dihydroxybenzamido)ethyl)-2,3-dioxopiperazine-1-carboxamido)-3-hydroxybutanamido)-7-fluoro-2-hydroxy-3,4-dihydro-2H-benzo[e][1,2]oxaborinine-8-carboxylic acid]
  EC50: > 100 µM

## NS(=O)(=O)c1cc(O)cc(C(NC(=O)N2CCN(Cc3c(F)cc(O)c(O)c3Cl)C(=O)C2=O)C(=O)N[C@H]2Cc3cccc(C(=O)O)c3OB2O)c1 (stereo partly drawn) [Example 132, (3R)-3-(2-(4-(2-chloro-6-fluoro-3,4-dihydroxybenzyl)-2,3-dioxopiperazine-1-carboxamido)-2-(3-hydroxy-5-sulfamoylphenyl)acetamido)-2-hydroxy-3,4-dihydro-2H-benzo[e][1,2]oxaborinine-8-carboxylic acid]
  EC50: > 100 µM

## NCCCN1CCN(C(=O)N[C@@H](C(=O)N[C@H]2Cc3ccc(F)c(C(=O)O)c3OB2O)c2cc(F)c(O)c(O)c2Cl)C(=O)C1=O (single isomer, unassigned) [Example 180]
  EC50: > 100 µM

## NC1(CN2CCN(C(=O)N[C@@H](C(=O)N[C@H]3Cc4ccc(F)c(C(=O)O)c4OB3O)c3c(F)cc(O)c(O)c3Cl)C(=O)C2=O)CC1 (single isomer, unassigned) [Example 134]
  EC50: 30 to 100 µM

## NCCN1CCN(C(=O)N[C@@H](C(=O)N[C@H]2Cc3ccc(F)c(C(=O)O)c3OB2O)c2cc(F)c(O)c(O)c2Cl)C(=O)C1=O (single isomer, unassigned) [Example 179]
  EC50: > 100 µM

## CCN1CCN(C(=O)NC(C(=O)N[C@H]2Cc3cccc(C(=O)O)c3OB2O)c2c(F)cc(N)cc2F)C(=O)C1=O (stereo partly drawn) [Example 181, (3R)-3-(2-(4-amino-2,6-difluorophenyl)-2-(4-ethyl-2,3-dioxopiperazine-1-carboxamido)acetamido)-2-hydroxy-3,4-dihydro-2H-benzo[e][1,2]oxaborinine-8-carboxylic acid]
  EC50: > 100 µM

## NS(=O)(=O)Nc1cccc(C(NC(=O)N2CCN(Cc3c(F)cc(O)c(O)c3Cl)C(=O)C2=O)C(=O)N[C@H]2Cc3cccc(C(=O)O)c3OB2O)c1 (stereo partly drawn) [Example 131, (3R)-3-(2-(4-(2-chloro-6-fluoro-3,4-dihydroxybenzyl)-2,3-dioxopiperazine-1-carboxamido)-2-(3-(sulfamoylamino)phenyl)acetamido)-2-hydroxy-3,4-dihydro-2H-benzo[e][1,2]oxaborinine-8-carboxylic acid]
  EC50: 30 to 100 µM
